Data on twelve compounds can be found in ChEMBL document CHEMBL4043204, “meso-Dihydroguaiaretic acid derivatives with antibacterial and antimycobacterial activity” (Bioorg Med Chem, 2017).

The test system of series [1] is Staphylococcus haemolyticus. The series can be described thus: Antibacterial activity against linezolid-resistant Staphylococcus haemolyticus 2975 assessed as inhibition of microbial growth incubated for 24 hrs by microdilution assay. As to conditions: Staphylococcus haemolyticus, 2975, 24 h. The format is functional. (In broth dilution the organism is exposed to a series of concentrations in liquid medium.)

In series [2] the test system is Escherichia coli. Briefly: Antibacterial activity against oxacillin-resistant Escherichia coli OXA-48 assessed as inhibition of microbial growth up to 50 ug/ml incubated for 24 hrs by microdilution assay. The class given is functional.
Series [3] relates to Mycobacterium tuberculosis. Briefly: Antimycobacterial activity against Mycobacterium tuberculosis H37Rv ATCC 27294 assessed as inhibition of mycobacterial growth incubated for 2 weeks by MABA method. The format is functional. The following applies: for MIC: Mycobacterium tuberculosis, H37Rv ATCC 27294, 336 h. (In general: The colour change of resazurin is a common sign of viable cells or microbes.)

For series [4], the system named is Staphylococcus epidermidis. Briefly: Antibacterial activity against linezolid-resistant Staphylococcus epidermidis (14-583) assessed as inhibition of microbial growth incubated for 24 hrs by microdilution assay. The class given is functional.
In a further series the test system is Staphylococcus aureus. Briefly: Antibacterial activity against methicillin-resistant Staphylococcus aureus (14-2095) assessed as inhibition of microbial growth incubated for 24 hrs by microdilution assay. The class given is functional.
A further series deals with Vero. The series can be described thus: Cytotoxicity against African green monkey Vero cells assessed as reduction in cell viability incubated for 24 hrs by trypan blue staining based assay. The following applies: Chlorocebus sabaeus.
The subject of another series is Acinetobacter baumannii. Briefly: Antibacterial activity against carbapenem-resistant Acinetobacter baumannii (12-666) assessed as inhibition of microbial growth up to 50 ug/ml incubated for 24 hrs by microdilution assay. The class given is functional.
The test system of series [5] is Stenotrophomonas maltophilia. Briefly: Antibacterial activity against trimethoprim-sulfamethoxazole-resistant Stenotrophomonas maltophilia assessed as inhibition of microbial growth up to 50 ug/ml incubated for 24 hrs by microdilution assay. The class given is functional.
The subject of series [6] is Klebsiella pneumoniae. The series can be described thus: Antibacterial activity against extended-spectrum beta-lactamase-positive Klebsiella pneumoniae (14-2081) assessed as inhibition of microbial growth up to 50 ug/ml incubated for 24 hrs by microdilution assay. The class given is functional.
A short description of series [7]: Selectivity index, ratio of IC50 for cytotoxicity against African green monkey Vero cells to MIC for antibacterial activity against methicillin-resistant Staphylococcus aureus (14-2095).
Series [8] deals with Klebsiella pneumoniae. The series can be described thus: Antibacterial activity against NDM-1 positive Klebsiella pneumoniae (14-3335) assessed as inhibition of microbial growth up to 50 ug/ml incubated for 24 hrs by microdilution assay. The class given is functional.
Series [9] deals with Escherichia coli. The series can be described thus: Antibacterial activity against extended-spectrum beta-lactamase-positive Escherichia coli (14-2081) assessed as inhibition of microbial growth up to 50 ug/ml incubated for 24 hrs by microdilution assay. The class given is functional.
A further series relates to Pseudomonas aeruginosa. Briefly: Antibacterial activity against carbapenem-resistant Pseudomonas aeruginosa (13-1391) assessed as inhibition of microbial growth up to 50 ug/ml incubated for 48 hrs by microdilution assay. The class given is functional.
The next series relates to Providencia rettgeri. Briefly: Antibacterial activity against NDM-1 positive Providencia rettgeri assessed as inhibition of microbial growth up to 50 ug/ml incubated for 24 hrs by microdilution assay. The format is functional.
Series [10] can be described thus: Selectivity index, ratio of IC50 for cytotoxicity against African green monkey Vero cells to MIC for Mycobacterium tuberculosis H37Rv ATCC 27294. The format is toxicity, cell-based. As to conditions: read-out: Selectivity Index.
In a further series the test system is Enterococcus faecium. Briefly: Antibacterial activity against vancomycin-resistant Enterococcus faecium (10-984) assessed as inhibition of microbial growth incubated for 24 hrs by microdilution assay. The format is functional.
Series [11] relates to Mycobacterium tuberculosis. The series can be described thus: Antimycobacterial activity against Mycobacterium tuberculosis H37Rv ATCC 27294 assessed as inhibition of mycobacterial growth up to 50 ug/ml incubated for 2 weeks by MABA method. The class given is functional.

In brackets after ≈: the same amount, converted by molar mass. Activity calls are given as the source filed them. The rule behind the calls is not given here.

Turning to `COc1cc(C[C@@H](C)[C@@H](C)Cc2ccc(OCCN3CCCCC3)c(OC)c2)ccc1O` (racemic), the MIC (commonly the lowest concentration found to suppress growth) in series [1] came out at 50 µg/mL; in series [3], 12.5 µg/mL (≈ 28.3 µM); in series [4], 50 µg/mL; with Staphylococcus aureus, 50 µg/mL; with Enterococcus faecium, 50 µg/mL. The outcome (in the series on Escherichia coli [2]; in the series on Acinetobacter baumannii; in series [5]; with Klebsiella pneumoniae [6]; in the series with Klebsiella pneumoniae [8]; in the series with Escherichia coli [9]) was inactive. For the same compound, the result in the series with Pseudomonas aeruginosa and in the series with Providencia rettgeri was inactive. The concentration for half-maximal inhibition (IC50) (usually the midpoint of a concentration-inhibition curve) with Vero stood at 62.6 µg/mL (≈ 142 µM). The “Selectivity Index” value in series [7] was found to be 1.25. The selectivity ratio in series [10] came out at 5.01.
`C[C@H]1COc2c(N3CCN(C)CC3)c(F)cc3c(=O)c(C(=O)O)cn1c23.C[C@H]1COc2c(N3CCN(C)CC3)c(F)cc3c(=O)c(C(=O)O)cn1c23.O` [LEVOFLOXACIN]: the MIC was 12.5 µg/mL in series [1]; 0.078 µg/mL in series [3]; 12.5 µg/mL in [4]; 3.12 µg/mL in the series with Staphylococcus aureus; over 50 µg/mL with Enterococcus faecium. The IC50 in the series on Vero was found to be 293 µg/mL. Further, the “Selectivity Index” value in [7] is 93.81.
With `CCCCCCCCCCCCCCCC(=O)Oc1ccc(C[C@H](C)[C@H](C)Cc2ccc(O)c(OC)c2)cc1OC` (racemic), the minimum inhibitory concentration (MIC) is over 50 µg/mL in [1], over 50 µg/mL in series [4], 50 µg/mL in the series with Staphylococcus aureus and over 50 µg/mL in the series on Enterococcus faecium. Further, the result (with Escherichia coli [2]; in the series with Acinetobacter baumannii; in series [5]; in the series on Klebsiella pneumoniae [6]; in the series with Klebsiella pneumoniae [8]; in the series on Escherichia coli [9]) was inactive. The result in the series with Pseudomonas aeruginosa and in the series with Providencia rettgeri was inactive. For the same compound, in series [3], the “-logMIC” value was 4.54. Further, in series [11], the “growth inhibition (GI)” value is “inactive”.
In the case of `COc1cc(C[C@@H](C)[C@@H](C)Cc2ccc(OCCN3CCCCC3)c(OC)c2)ccc1OCCN1CCCCC1`, the minimal inhibitory concentration (MIC) in series [1] was 50 µg/mL; in [3], 3.12 µg/mL (≈ 5.65 µM); in series [4], over 50 µg/mL; in the series with Staphylococcus aureus, 50 µg/mL; in the series with Enterococcus faecium, 50 µg/mL. The result (in the series with Escherichia coli [2]; in the series on Acinetobacter baumannii; in [5]; with Klebsiella pneumoniae [6]; with Klebsiella pneumoniae [8]; in the series with Escherichia coli [9]) was inactive. The outcome in the series on Pseudomonas aeruginosa and in the series on Providencia rettgeri was inactive. Also, the IC50 in the series with Vero came out at 73.2 µg/mL (≈ 132 µM). Besides, the “Selectivity Index” value in series [7] worked out at 1.46. The selectivity ratio in [10] was found to be 23.4.
For `COc1cc(C[C@@H](C)[C@@H](C)Cc2ccc(OC)c(OC)c2)ccc1O` (racemic), the MIC was over 50 µg/mL in series [1]; 50 µg/mL (≈ 145 µM) in series [3]; over 50 µg/mL in series [4]; 25 µg/mL with Staphylococcus aureus; over 50 µg/mL in the series with Enterococcus faecium. Moreover, the outcome (in the series with Escherichia coli [2]; in the series on Acinetobacter baumannii; in series [5]; in the series with Klebsiella pneumoniae [6]; with Klebsiella pneumoniae [8]; in the series with Escherichia coli [9]) was inactive. Besides, the outcome in the series on Pseudomonas aeruginosa and with Providencia rettgeri was inactive. Besides, in series [3], the “-logMIC” value amounted to 3.94. The IC50 in the series with Vero is 47.8 µg/mL (≈ 139 µM). For the same compound, the “Selectivity Index” value in series [7] is recorded as 1.91. Also, the selectivity ratio in series [10] is 0.96.
`COc1cc(C[C@@H](C)[C@@H](C)Cc2ccc(OC(=O)c3ccccc3[N+](=O)[O-])c(OC)c2)ccc1OC(=O)c1ccccc1[N+](=O)[O-]`: the outcome (in the series with Escherichia coli [2]; in the series on Acinetobacter baumannii; in series [5]; in the series with Klebsiella pneumoniae [6]; in the series on Klebsiella pneumoniae [8]; with Escherichia coli [9]) was inactive. In addition, the outcome in the series with Pseudomonas aeruginosa and in the series on Providencia rettgeri was inactive. Further, the “-logMIC” value in [3] stood at 4.03. For the same compound, in [11], the “growth inhibition (GI)” value was “inactive”.
As to `CCCCCCCCCCCCCCCCCC(=O)Oc1ccc(C[C@@H](C)[C@@H](C)Cc2ccc(OC(=O)CCCCCCCCCCCCCCCCC)c(OC)c2)cc1OC`, the result (in the series on Escherichia coli [2]; in the series on Acinetobacter baumannii; in series [5]; with Klebsiella pneumoniae [6]; with Klebsiella pneumoniae [8]; with Escherichia coli [9]) was inactive. For the same compound, the result in the series with Pseudomonas aeruginosa and with Providencia rettgeri was inactive. Moreover, the “-logMIC” value in series [3] is 3.85. The “growth inhibition (GI)” value in series [11] is “inactive”.
On to `COc1cc(C[C@@H](C)[C@@H](C)Cc2ccc(OCCN3CCOCC3)c(OC)c2)ccc1OCCN1CCOCC1`, for which the MIC is over 50 µg/mL in series [1]; 25 µg/mL (≈ 44.9 µM) in series [3]; over 50 µg/mL in series [4]; 50 µg/mL in the series on Staphylococcus aureus; over 50 µg/mL with Enterococcus faecium. Besides, the outcome (with Escherichia coli [2]; in the series with Acinetobacter baumannii; in [5]; in the series on Klebsiella pneumoniae [6]; in the series with Klebsiella pneumoniae [8]; in the series on Escherichia coli [9]) was inactive. In addition, the result in the series with Pseudomonas aeruginosa and in the series with Providencia rettgeri was inactive. Further, the IC50 in the series on Vero was 71.6 µg/mL (≈ 129 µM). In addition, the “Selectivity Index” value in series [7] is 1.43. In series [10], the selectivity ratio is 2.87.
Consider `COc1cc(C[C@@H](C)[C@@H](C)Cc2ccc(OC(=O)c3ccccn3)c(OC)c2)ccc1O` (racemic), for which the minimal inhibitory concentration (MIC) in [1] was over 50 µg/mL; in [3], 50 µg/mL (≈ 115 µM); in series [4], over 50 µg/mL; in the series with Staphylococcus aureus it was 25 µg/mL; with Enterococcus faecium it was over 50 µg/mL. Further, the result (in the series on Escherichia coli [2]; with Acinetobacter baumannii; in series [5]; in the series on Klebsiella pneumoniae [6]; with Klebsiella pneumoniae [8]; in the series on Escherichia coli [9]) was inactive. Further, the result in the series with Pseudomonas aeruginosa and in the series with Providencia rettgeri was inactive. In series [3], the “-logMIC” value came out at 3.87. Further, the IC50 with Vero stood at 65 µg/mL (≈ 149 µM). Moreover, the “Selectivity Index” value in [7] turned out to be 2.6. Besides, the selectivity ratio in [10] stood at 1.3.
Consider `COc1cc(C[C@@H](C)[C@@H](C)Cc2ccc(OC(=O)c3cnccn3)c(OC)c2)ccc1O` (racemic), for which the MIC in series [1] is over 50 µg/mL; in series [3] it was 50 µg/mL (≈ 115 µM); in [4] it was over 50 µg/mL; in the series on Staphylococcus aureus, 50 µg/mL; with Enterococcus faecium it was over 50 µg/mL. The outcome (in the series on Escherichia coli [2]; in the series with Acinetobacter baumannii; in series [5]; with Klebsiella pneumoniae [6]; in the series with Klebsiella pneumoniae [8]; in the series on Escherichia coli [9]) was inactive. Also, the result in the series with Pseudomonas aeruginosa and in the series on Providencia rettgeri was inactive. Moreover, the “-logMIC” value in [3] is 4.07. Further, the concentration for half-maximal inhibition (IC50) with Vero was 43.3 µg/mL (≈ 99.3 µM). Moreover, the “Selectivity Index” value in [7] is 0.87. In [10], the selectivity ratio turned out to be 0.86.
Take `CCCCCCCCCCCCCCCCCC(=O)Oc1ccc(C[C@H](C)[C@H](C)Cc2ccc(O)c(OC)c2)cc1OC` (racemic): the outcome (with Escherichia coli [2]; in the series with Acinetobacter baumannii; in [5]; with Klebsiella pneumoniae [6]; in the series on Klebsiella pneumoniae [8]; in the series on Escherichia coli [9]) was inactive. Moreover, the result in the series with Pseudomonas aeruginosa and in the series on Providencia rettgeri was inactive. Also, in series [3], the “-logMIC” value was determined as 3.84. In addition, in series [11], the “growth inhibition (GI)” value is “inactive”.
Regarding `CCCCCCCC/C=C\CCCCCCCC(=O)Oc1ccc(C[C@@H](C)[C@@H](C)Cc2ccc(OC(=O)CCCCCCC/C=C\CCCCCCCC)c(OC)c2)cc1OC`, the outcome (with Escherichia coli [2]; in the series on Acinetobacter baumannii; in series [5]; in the series on Klebsiella pneumoniae [6]; with Klebsiella pneumoniae [8]; in the series on Escherichia coli [9]) was inactive. The result in the series with Pseudomonas aeruginosa and in the series with Providencia rettgeri was inactive. The “-logMIC” value in series [3] worked out at 4.88. Moreover, the “growth inhibition (GI)” value in [11] is “inactive”.
